Results published in patent US7329660B2, “Phthalazine derivatives for treating inflammatory diseases” (Novartis AG, priority 1999, dated 2008).

Key:
male Wistar rats = test: Rat adjuvant arthritis model, therapeutic dosing; assay type: in vivo; conditions: for % inhibition of swelling: day 15 to day 22, swelling of the tarsal joints
Description: The well-known rat adjuvant arthritis model (Pearson, Proc. Soc. Exp. Biol. 91, 95-101 (1956)) is used to test the anti-arthritic activity of compounds of the formula I, or salts thereof. Adjuvant Arthritis can be treated uwing two different dosing schedules: either (i) starting time of immunisation with adjuvant (prophylactic dosing); or from day 15 when the arthritic response is already established (therapeutic dosing). Preferably a therapeutic dosing schedule is used. For comparison, e.g. SDZ115-155 (=DUP697) is administered in a separate group.
(§1) In detail, male Wistar rats (5 animals per group, weighing epproximately 200 g, supplied by Iffa Credo, France) are injected i.d. (intra-dermally) at the base of the tail with 0.1 ml of mineral oil containing 0.6 mg of lyophilised heat-killed Mycobacterium tuberculosis. The rats are treated with the test compound (3, 10 or 30 mg/kg p.o. once per day), or vehicle (water) from day 15 to day 22 (therapeutic dosing schedule). At the end of the experiment, the swelling of the tarsal joints is measured by means of a mico-calliper. Percentage inhibition of paw swelling is calculated by reference to vehicle treated arthritic animals (0% inhibition) and vehicle treated normal animals (100% inhibition).
The rat adjuvant arthritis model is used to test the anti-arthritic activity of the compound of Example 1 of WO 98/35958, 1-(4-chloroanilino)-4-(4-pyridylmethyl)phthalazine dihydrochloride. The therapeutic dosing schedule with start of treatment at day 15 after induction of arthritis is used.
as §1, with “Method: Male Wistar” for “In detail, male Wistar”, “(5 rats” for “(5 animals”, “group, weight about” for “group, weighing epproximately”, “200 g;” for “200 g, supplied by”, “of lyophilized” for “of lyophilised”, “p.o. s.i.d. (=once a” for “p.o. once per”

male Sprague Dawley rats = test: Rat inflammatory hyperalgesia model (Randall-Selitto paw pressure test); assay type: in vivo; conditions: 30 mg/kg p.o., 1 and 2 hours after dosing
Protocol: In this model, the hyperalgesia caused by an intra-planar yeast injection is measured by applying increased pressure to the foot until the animal vocalizes or withdraws its foot from the applied pressure pad. The model is sensitive to COX inhibitors, and diclofenac at 3 mg/kg is used as a positive control.
Method: The baseline pressure required to induce vocalization or withdrawal of the paw of male Sprague Dawley rats (weighing approximately 180 g, supplied by Iffa Credo, France) is measured (2 hours before treatment), followed by an intra-planar injection of 100 μl of a 20% yeast suspension in water in the hind paw. […]
In this model, the hyperalgesia caused by an intra-planar yeast injection is measured by applying increased pressure to the foot until the animal vocalizes or withdraws its foot from the applied pressure pad. […]
Method: The baseline pressure required to induce vocalization or withdrawal of the paw of male Sprague Dawley rats (5 rats per group; weight approximately 180 g, Iffa Credo, France) is measured (2 hours before treatment), followed by an intra-planar injection of 100 μl of a 20% yeast suspension in water in the hind paw. […] Pressure is measured with the standard apparatus from Ugo Basile, Italy, for the paw pressure test (Randall-Selitto).

[1] = biological target: T1, Flt-1 VEGF-receptor tyrosine kinase (Homo sapiens, UniProt P17948); test: Test for activity against Flt-1 VEGF-receptor tyrosine kinase; assay type: biochemical
T1 construct: 10 ng of the kinase domain of Flt-1
T1 sequence (P17948 827-1158 limits assumed): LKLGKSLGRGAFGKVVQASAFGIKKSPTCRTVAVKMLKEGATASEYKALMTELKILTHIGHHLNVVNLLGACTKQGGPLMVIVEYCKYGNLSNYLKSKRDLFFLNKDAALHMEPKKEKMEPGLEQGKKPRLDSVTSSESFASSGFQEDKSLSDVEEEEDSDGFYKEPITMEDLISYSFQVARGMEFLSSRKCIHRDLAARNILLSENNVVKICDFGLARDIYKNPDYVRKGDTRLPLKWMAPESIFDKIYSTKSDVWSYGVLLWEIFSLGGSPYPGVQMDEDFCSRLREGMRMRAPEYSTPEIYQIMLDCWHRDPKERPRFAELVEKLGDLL
Protocol: Test for activity against VEGF-receptor tyrosine kinase: the test is conducted using Flt-1 VEGF-receptor tyrosine kinase. […] The reaction is then ended by the addition of 10 μl 0.25 M ethylenediaminetetraacetate (EDTA) pH 7. Using a multichannel dispenser (LAB SYSTEMS, USA), an aliquot of 20 μl is applied to a PVDF (=polyvinyl difluoride) Immobilon P membrane (Millipore, USA), which is incorporated into a Millipore microtitre filter manifold, and connected to a vacuum. Following complete elimination of the liquid, the membrane is washed 4 times successively in a bath containing 0.5% phosphoric acid (H3PO4), incubated for 10 minutes each time while shaking, then mounted in a Hewlett Packard TopCount Manifold and the radioactivity measured after the addition of 10 μl Microscint® (β-scintillation counter liquid; Packard USA).
The test is conducted using Flt-1 VEGF-receptor tyrosine kinase, as described hereinabove.

| Compound | melting point | IC50 [1] | other results |
| --- | --- | --- | --- |
| FC(F)(F)c1cc(Nc2nnc(CCCc3cccnc3)c3ccccc23)ccc1Cl [Example 8, 1-(4-Chloro-3-trifluoromethylanilino)-4-[3-(pyridin-3-yl)propyl]phthalazine] | 165 to 166 °C |  |  |
| Cc1cc(Nc2nnc(Cc3ccncc3)c3ccccc23)nc(C)n1 [Example 15, 1-[(2,6-Dimethyl-pyrimidin-4-yl)-amino]4-(4-pyridyl-methyl)-phthalazine] | 232 to 233 °C |  |  |
| Cl.Cl.Clc1ccc(Nc2nnc(Cc3ccncc3)c3ccccc23)cc1 [1-(4-chloroanilino)-4-(4-pyridylmethyl)phthalazine dihydrochloride] |  |  | % inhibition of swelling (male Wistar rats; 3 mg/kg p.o. once a day): 0.8 ± 4.0%; % inhibition of swelling (male Wistar rats; 10 mg/kg p.o. once a day): 12.4 ± 5.0%; % inhibition of swelling (male Wistar rats; 30 mg/kg p.o. once a day): 37.0 ± 2.3%; inhibition of paw swelling (in words) (male Wistar rats; 3, 10 or 30 mg/kg p.o., dosing for 7 days from day 15): dose-related inhibition of paw swelling; overall discomfort experienced by rats while being held for oral dosing (male Wistar rats; observation in the adjuvant arthritis model): reduce the overall discomfort; inhibition of paw hyperalgesia (in words) (male Sprague Dawley rats): inhibits paw hyperalgesia |
| Cc1cc(Cc2nnc(Nc3cc(Br)cc(C(F)(F)F)c3)c3ccccc23)ccn1 [Example 23, 1-(3-Bromo-5-trifluoromethyl-anilino)-4-(2-methylpyridin-4-yl-methyl)-phthalazine] | 184 to 185 °C |  |  |
| Cc1cccc(Nc2nnc(CCc3cccnc3)c3ccccc23)c1 [Example 2] | 136 °C | 317 nM |  |
| CS(=O)(=O)c1ccc(-c2cc(Br)sc2-c2ccc(F)cc2)cc1 [115–155, reference compound] |  |  | % inhibition of swelling (male Wistar rats; 3 mg/kg p.o. once a day): 53.8 ± 2.7% |
| Cc1cccc(Nc2nnc(/C=C\c3cccnc3)c3ccccc23)c1 [1 (Z isomer)] |  | 4900 nM |  |
| Cc1cccc(Nc2nnc(/C=C/c3cccnc3)c3ccccc23)c1 [1 (E isomer)] |  | 715 nM |  |
